Test results taken from patent publication US3960833A, “Butirosin A 3",5"-O-isopropylidene derivatives” (Bristol-Myers Company, priority 1975, dated 1976).
In brackets after ≈: the same amount, converted by molar mass.

What was measured:
Test in all cases: MIC by Steers agar-dilution method on Mueller-Hinton medium
Type in all cases: cell-based
E. coli A20107 = conditions: Escherichia coli, A20107
From the text: (§1) Illustrated below is a table showing the minimal inhibitory concentrations (MIC's) of butirosin A, 4'-deoxybutirosin A and compound 11 (BB-K186) against a variety of gram-positive and gram-negativebacteria as obtained by the Steers agar-dilution method on Mueller-Hinton medium.

E. coli A20732 = conditions: Escherichia coli, A20732
From the text: as §1

E. coli A20895 = conditions: Escherichia coli, A20895
From the text: as §1

E. coli JR35/C600 = conditions: Escherichia coli
From the text: as §1

E. coli JR66/W677 = conditions: Escherichia coli
From the text: as §1

E. coli ML1630 = conditions: Escherichia coli, ML1630
From the text: as §1

E. coli NIHJ = conditions: Escherichia coli
From the text: as §1

E. coli NR79/W677 = conditions: Escherichia coli
From the text: as §1

E. coli PO1495 = conditions: Escherichia coli
From the text: as §1

E. coli R5 = conditions: Escherichia coli, R5
From the text: as §1

Ent. cloacae A20364 = conditions: Enterobacter cloacae, A20364
From the text: as §1

Ent. cloacae A21006 = conditions: Enterobacter cloacae, A21006
From the text: as §1

K. pneumoniae 22-3038 = conditions: Klebsiella pneumoniae, 223038
From the text: as §1

K. pneumoniae D11 = conditions: Klebsiella pneumoniae, D11
From the text: as §1

Pr. mirabilis A9554 = conditions: Proteus mirabilis, A9554
From the text: as §1

Pr. morganii A20031 = conditions: Morganella morganii, A20031
From the text: as §1

Pr. vulgaris A9436 = conditions: Proteus vulgaris, A9436
From the text: as §1

Prov. stuartii A20894 = conditions: Providencia stuartii, A20894
From the text: as §1

Ps. aeruginosa A20601 = conditions: Pseudomonas aeruginosa, A20601
From the text: as §1

Ps. aeruginosa A20635 = conditions: Pseudomonas aeruginosa, A20635
From the text: as §1

Ps. aeruginosa A20896 = conditions: Pseudomonas aeruginosa, A20896
From the text: as §1

Ps. aeruginosa A9930 = conditions: Pseudomonas aeruginosa, A9930
From the text: as §1

Ps. aeruginosa GN-315 = conditions: Pseudomonas aeruginosa, GN315
From the text: as §1

Ps. aeruginosa No. 130 = conditions: Pseudomonas aeruginosa, NO.130
From the text: as §1

Pseudomonas sp. A20621 = conditions: Pseudomonas, SP.A20621
From the text: as §1

S. aureus A20239 = conditions: Staphylococcus aureus, A20239
From the text: as §1

S. aureus D133 = conditions: Staphylococcus aureus, D133
From the text: as §1

S. aureus D137 = conditions: Staphylococcus aureus, D137
From the text: as §1

S. aureus D193 = conditions: Staphylococcus aureus, D193
From the text: as §1

S. aureus Smith = conditions: Staphylococcus aureus
From the text: as §1

Ser. marcescens A20019 = conditions: Serratia marcescens, A20019
From the text: as §1

Ser. marcescens A21247 = conditions: Serratia marcescens, A21247
From the text: as §1

With `NCC[C@H](O)C(=O)N[C@@H]1C[C@H](N)[C@@H](O[C@H]2O[C@H](CN)[C@@H](O)[C@H](O)[C@H]2N)[C@H](O[C@@H]2O[C@H](CO)[C@H](O)[C@H]2O)[C@H]1O` [Bu-1709A1, butirosin A] the MIC (E. coli A20107) was 50 µg/mL (≈ 90 µM), the MIC (E. coli A20732) was 1.6 µg/mL (≈ 2.88 µM) and the MIC (E. coli A20895) was 3.1 µg/mL (≈ 5.58 µM). The MIC (E. coli JR35/C600) was 0.8 µg/mL (≈ 1.44 µM), the MIC (E. coli JR66/W677) was 100 µg/mL (≈ 180 µM) and the MIC (E. coli ML1630) was 3.1 µg/mL (≈ 5.58 µM). For the same compound, the MIC (E. coli NIHJ) was 1.6 µg/mL (≈ 2.88 µM), the MIC (E. coli NR79/W677) was greater than 100 µg/mL and the MIC (E. coli PO1495) was 1.6 µg/mL (≈ 2.88 µM). The MIC (E. coli R5) was 3.1 µg/mL (≈ 5.58 µM), the MIC (Ent. cloacae A20364) was 1.6 µg/mL (≈ 2.88 µM) and the MIC (Ent. cloacae A21006) was greater than 100 µg/mL. The MIC (K. pneumoniae 22-3038) was greater than 100 µg/mL, the MIC (K. pneumoniae D11) was 0.8 µg/mL (≈ 1.44 µM) and the MIC (Pr. mirabilis A9554) was 1.6 µg/mL (≈ 2.88 µM). For the same compound, the MIC (Pr. morganii A20031) was 1.6 µg/mL (≈ 2.88 µM), the MIC (Pr. vulgaris A9436) was 0.4 µg/mL (≈ 0.72 µM) and the MIC (Prov. stuartii A20894) was greater than 100 µg/mL. It also gave an MIC (Ps. aeruginosa A20601) of 50 µg/mL (≈ 90 µM), an MIC (Ps. aeruginosa A20635) greater than 100 µg/mL and an MIC (Ps. aeruginosa A20896) greater than 100 µg/mL. The MIC (Ps. aeruginosa A9930) was 6.3 µg/mL (≈ 11.3 µM), the MIC (Ps. aeruginosa GN-315) was greater than 100 µg/mL and the MIC (Ps. aeruginosa No. 130) was 25 µg/mL (≈ 45 µM). The MIC (Pseudomonas sp. A20621) was 100 µg/mL (≈ 180 µM), the MIC (S. aureus A20239) was 25 µg/mL (≈ 45 µM) and the MIC (S. aureus D133) was 6.3 µg/mL (≈ 11.3 µM). For the same compound, the MIC (S. aureus D137) was 25 µg/mL (≈ 45 µM), the MIC (S. aureus D193) was 3.1 µg/mL (≈ 5.58 µM) and the MIC (S. aureus Smith) was 0.8 µg/mL (≈ 1.44 µM). For the same compound, the MIC (Ser. marcescens A20019) was 6.3 µg/mL (≈ 11.3 µM) and the MIC (Ser. marcescens A21247) was 6.3 µg/mL (≈ 11.3 µM).
